Counter-ions that a name gives are not always drawn.

The experiment deals with peptide sequence L-Lys-D-Ala-D-Ala (Receptor). The experiment is described as follows: Determination of the binding constant by Laser Light Scattering (LLS) on receptor-coated polymer particles. The settings on record: Langmuir fit. The method, then:
[…]
After each addition the mixture was stirred for 30 seconds and let balance for 1 minute, and the scattering light intensity was measured by using a 5 milliwatt He—Ne laser and a photomultiplier to convert the scattered light into an electric signal.
The light intensity was recorded for 10 seconds for consecutive six times thus selecting the lowest value in order to minimize the noise due to the possible presence of powder in the sample. […]

Turning to `CN[C@H](CC(C)C)C(=O)N[C@H]1C(=O)N[C@@H](CC(N)=O)C(=O)N[C@H]2C(=O)N[C@H]3C(=O)N[C@H](C(=O)N[C@H](C(=O)O)c4cc(O)cc(O)c4-c4cc3ccc4O)[C@H](O)c3ccc(c(Cl)c3)Oc3cc2cc(c3O[C@@H]2O[C@H](CO)[C@@H](O)[C@H](O)[C@H]2O[C@H]2C[C@](C)(N)[C@H](O)[C@H](C)O2)Oc2ccc(cc2Cl)[C@H]1O` [Vancomycin, Vancomycin hydrochloride hydrate], the “binding constant (receptor-ligand)” value stood at 1.5e+06 mol⁻¹ (Example 1: particles of average diameter 78 nm, TFE copolymer with 40% by moles perfluoromethylvinylether, 0.4 millimole Vancomycin solution) and 1.1e+06 mol⁻¹ (Example 2: particles of average diameter 40 nm, TFE copolymer with 30% by moles TTD, 0.9 millimolar Vancomycin).

For the origin of these results see patent publication US20080118992A1, “Method For Measuring Molecular Interactions By Laser Light Scattering (Lls)” (UNIVERSITA DEGLI STUDI DI MILANO, priority 2004, published 2008).
